According to patent US20210038668A1, “TRADITIONAL CHINESE MEDICINE COMPOSITION FOR PREVENTING AND/OR TREATING ISCHEMIC REPERFUSION INJURY” (TASLY PHARMACEUTICAL GROUP CO., LTD., priority 2018, published 2021):

Tests used:
Format in all cases: in vivo, C57BL/6 mice
[1] = test system: mice with carotid artery thrombus; test: Neurological scoring, 15-score standard, mice; settings: 24 hours after administration; normal = 15, dead = 0; tPA 10 mg/kg alone; T541 20 mg/kg, T141 12 mg/kg, T582 15 mg/kg each + tPA 10 mg/kg
Method: Neurological scoring was conducted to each group of mice after reperfused for 24 hours based upon scoring standards (15 scores) (Garcia J H et al. Stroke. 1995; 26:627-634.) with slight modification:
Mice capacity of autonomic activity: mice were put into a 25×15 cm cage to record their motion trails within 3 minutes; mice incapable of moving basically were denoted as 0; mice with little activity and not touching any wall of the cage were denoted as 1; mice touching any […] were denoted as 2; mice touching three walls and above were denoted as 3;
Mice limbs symmetry experiment: mice tails were lifted to observe the motion trails of their bodies; mice with completely asymmetric bodies were denoted as 0; mice with almost asymmetrical bodies were denoted as 1; mice with moderately asymmetrical bodies were denoted as 2; mice with almost symmetric bodies were denoted as 3;
Measurement of open field test: free motion of mice was observed; mice without any motion were denoted as 0; mice circling around were denoted as 1; mice tilting to one side to make curvilinear motion were denoted as 2; mice making rectilinear motion were denoted as 3; […]
Mice neurological scoring: a sum of the individual score of the above five experiments is calculated; 15 scores denote normal mice and 0 denote dead mice.

[2] = test system: brain tissue (blood brain barrier leakage); test: Evens Blue leakage in brain tissue; settings: 24 h after administration; method: microgram Evens Blue per gram brain tissue; tPA 10 mg/kg alone; T541 20 mg/kg + tPA 10 mg/kg
Method: Evens Blue leakage: after reperfused for 21 hours, mice were slowly injected an Evens Blue dye (2%, 4 ml/kg) dissolving in normal saline via femoral vein. 3 hours later, mice were perfused 15-20 ml of normal saline till auricula dextra flows colourless liquid, then the brain was immediately separated and immobilized in a 3% paraformaldehyde for 3 hours, then taken out, the brain was cut into 5 slices and shoot; left and right brain was separated and respectively weighed. Left and right brain was respectively added to an EP tube containing 1 ml of 50% trichloroacetic acid, homogenated and centrifuged to obtain the supernatant. An Evens Blue standard was prepared and the content of Evens Blue was detected by a multimode reader (exciting light: 620 nm, emitting light: 680 nm). The content of Evens Blue was denoted by the microgram of Evens Blue in per gram of brain tissue.

Collagen IV = test: Western blotting of Collagen IV, basement membrane; settings: brain tissue 24 hours after administration, sham = 1.00; tPA 10 mg/kg alone; T541 20 mg/kg + tPA 10 mg/kg
Method: After reperfused for 24 hours, mice were perfused by normal saline; Western blotting analysis was conducted to the penumbra field of infarcted right cerebral cortex. After perfused, mice brain tissue was taken out; cerebellum and prefrontal lobe were cut off; the brain tissue of right brain close to 1 cm of the central joint of left and right hemispheres along the sagittal view; infarcted penumbra field of the rest tissues was cut off along an 45° angle; the cerebral cortex of the penumbra field was peeled off and preserved at low temperature. Right cerebral cortex was taken and added 1×RIPA lysate and a Cocktail protease inhibitor (1:100, Cell Signaling Technology, US) for full pyrolysis and ultrasonic treatment, and then 17000 g were centrifuged for 30 minutes. Supernatant was taken and added 5×loading buffer by volume, boiled for 20 minutes in boiling water, and then preserved at −80° C. Excessive supernatant was taken out and quantified by a BCA protein quantification liquor (ThermoScientific, US) to measure absorbance value at 560 nm of ELIASA and to calculate the protein concentration according to a standard curve. […] The density of electrophoretic strips was analyzed by an image analysis software Quantityone. […]

[3] = test system: ATP, ADP and AMP of cerebral cortex in ischemic penumbra; test: ELISA of ATP, ADP and AMP in brain tissue; settings: brain tissue 24 hours after administration
Description: (§1) To compare the therapeutical effect on reperfusion injury caused by tPA thrombolysis between the traditional Chinese medicinal composition of the present invention and each ingredient (total saponins of Astragalus, the experiment was divided into the following group (tPA is combined with T541, individual ingredient thereof and compatibility of any two ingredients) specifically as follows: tPA+total saponins of Astragalus (tPA+HQ), tPA+ salvianolic acids (tPA+DS), tPA+Panax notoginseng saponins (tPA+SQ), tPA+ total saponins of Astragalus+salvianolic acids (tPA+HQ+DS), tPA+ total saponins of Astragalus+Panax notoginseng saponins (tPA+HQ+SQ), tPA+ salvianolic acids+Panax notoginseng saponins (tPA+DS+SQ) and tPA+T541. Normal saline served as an isovolumetric control. The usage number in each group is 6.
ELISA adsorption kit was used to measure the change on the content of MDA, 8-hydroxyl-2′-deoxyguanosine (8-OHdG), adenosine triphosphate (ATP), adenosine diphosphate (ADP) and adenosine monophosphate (AMP) in the penumbra field of brain tissue cortex of the mode, and the change on the activity of mitochondrial complexes I, II, IV and V. 6 samples were used to repeat the independent experiment for at least three times for each group of data.

Bcl-2 = test: Western blotting of Bcl-2 in brain tissue; settings: brain tissue 24 h after administration, sham = 1.00; tPA 10 mg/kg alone or + T541 20 mg/kg or ingredients at Table 7 doses
Description: as §1
(§2) After reperfused for 24 hours, mice were perfused by normal saline; Western blotting analysis was conducted to the penumbra field of infarcted right cerebral cortex. […] Excessive supernatant was taken out and quantified by a BCA protein quantification liquor (ThermoScientific, US) to measure absorbance value at 560 nm of ELIASA and to calculate the protein concentration according to a standard curve. […] The density of electrophoretic strips was analyzed by an image analysis software Quantityone. […]

Bax = test: Western blotting of Bax in brain tissue; settings: brain tissue 24 h after administration, sham = 1.00; tPA 10 mg/kg alone or + T541 20 mg/kg or ingredients at Table 7 doses
Description: as §1, §2

[4] = tPA 10 mg/kg alone or + T541 20 mg/kg or ingredients at Table 7 doses

tPA: tissue-type plasminogen activator (tPA) for thrombolysis
Neurological scoring, 15-score standard [1]: 5.82 ± 0.52
Evens Blue leakage [2]: 17.55 ± 1.23
Collagen IV content (Collagen IV): 0.68 ± 0.04
ADP [3, 4]: 2.51 ± 0.24
ADP/ATP [3, 4]: 2.45 ± 0.10
AMP [3, 4]: 2.66 ± 0.32
AMP/ATP [3, 4]: 2.68 ± 0.34
ATP ([3]; tPA 10 mg/kg alone or + T541 20 mg/kg or ingredients at Table 7 doses (Astragalus saponins 10, Panax notoginseng saponins 2, salvianolic acids 8, in pairs 2 mg/kg)): 1.05 ± 0.13
Bcl-2 (Bcl-2): 1.51 ± 0.14
Bax (Bax): 5.52 ± 0.78
Bax/Bcl-2 (Bax): 3.82 ± 0.57
